Source: US20240408099A1, “COMBINATION […] OF KRAS G12D INHIBITORS WITH Pan ErbB FAMILY INHIBITORS” (MIRATI THERAPEUTICS, INC., priority 2021, published 2024)

Columns and labels:
HPAC cells = assay: HPAC TGI 73 pancreatic cancer xenograft, tumor volumes; type: in vivo, nude/nude mice; details: for Average Tumor Volumes: 30 mg/kg IP BID daily
Description: Immunocompromised nude/nude mice are inoculated in the right hind flank with cells harboring a KRas G12D mutation. When tumor volumes reach between 200-400 mm^3 in size, the mice are divided into four to five groups of 5 mice each. The first group is administered vehicle only. […] The fourth or last groups are administered the single agent dose of the KRas G12D inhibitor using the twice daily schedule and/or the 2 sequential days followed by 5 days off schedule in combination with the single agent dose of one of the EGFR inhibitors. The treatment period varies from cell line to cell line but typically is between 15-40 days. Tumor volumes are measured using a caliper every two-three days and tumor volumes are calculated by the formula: […].
Experimental Procedures. 20 nude/nude mice were inoculated with HPAC cells in the right hind flank. When the tumors reached ˜200 mm^3 four treatment groups were established with five mice per group.

AGS = assay: Composite Synergy Score, Cell-Titer Glo 72 hours, dose matrix with MRTX1133; type: cell-based; details: combined with MRTX1133
Description: (§1) Assays for determining the synergy score for the pairwise combinations for each cell line were performed in triplicate. Three 96-well plates plus an additional 4 wells of a separate 96-well control plate for determining baseline luminescence were seeded with 2000 cells/well of a particular cell line in a total volume of 90 μl of a suitable growth medium for that cell line, e.g., RPMI 1640 medium supplemented with 10% FBS and any cell line specific reagents need for growth. The plates were incubated overnight at 37° C. in a 5% CO2 atmosphere.
(§2) To each of the designated baseline wells, 30 μl of Cell-Titer Glo reagent (CTG; Promega Corporation) was added to each well and the plates were incubated for 20 min with shaking at room temperature. Baseline luminescence was quantitated using a BMG ClarioStar multimode plate reader according to the manufacturer's instructions.
(§3) A series of working stock 1000× drug dilutions in 100% DMSO was prepared that includes an 8 point single agent dilution of MRTX 1133 and a 5-point single agent dilution of the pan ErbB family inhibitor. The dilutions used for MRTX1133 and the pan ErbB family inhibitor varied for each individual compound but were in the range of 3- to 6-fold/serial dilution.
(§4) A 10× intermediate dosing plate was prepared in serum free RPMI medium that contains arrayed single agent dilutions MRTX1133 or the pan ErbB family inhibitor. In addition, a matrix of 40 dilution combinations of MRTX1133 and the pan ErbB family inhibitor was prepared as test samples.
(§5) To each corresponding well of the three 96-well plates seeded with the appropriate cell line above, 10 μl of each 10× single agent and the 40 combinations of the dose matrix was added and the plates were incubated for 72 hours at 37 C in 5% CO2 atmosphere. A 30 μl aliquot of Cell-Titer Glo reagent (CTG) was added to each test well, the plates were incubated for 20 min with shaking at room temperature, and luminescence was quantitated using a BMG ClarioStar multimode plate reader according to the manufacturer's instructions.
(§6) The output of the data from each mathematical model is the assignment of a relative synergy score. The data reported in Table 1 are the aggregate sum of the Loewe additivity, Bliss independence, Highest Single Agent and ZIP scores (“Composite Synergy Score”).
(§7) The output of the data from each mathematical model is the assignment of a relative synergy score.

ASPC1 = assay: as above; type: cell-based; details: combined with MRTX1133
Description: as §1, §2, §3, §4, §5, §6, §7

GP2D = assay: as above; type: cell-based; details: combined with MRTX1133
Description: as §1, §2, §3, §4, §5, §6, §7

HCC1588 = assay: as above; type: cell-based; details: combined with MRTX1133
Description: as §1, §2, §3, §4, §5, §6, §7

HPAC = assay: as above; type: cell-based; details: combined with MRTX1133
Description: as §1, §2, §3, §4, §5, §6, §7

HPAFII = assay: as above; type: cell-based; details: combined with MRTX1133
Description: as §1, §2, §3, §4, §5, §6, §7

Hec1B = assay: as above; type: cell-based; details: combined with MRTX1133
Description: as §1, §2, §3, §4, §5, §6, §7

LS180 = assay: as above; type: cell-based; details: combined with MRTX1133
Description: as §1, §2, §3, §4, §5, §6, §7

LS513 = assay: as above; type: cell-based; details: combined with MRTX1133
Description: as §1, §2, §3, §4, §5, §6, §7

Panc0203 = assay: as above; type: cell-based; details: combined with MRTX1133
Description: as §1, §2, §3, §4, §5, §6, §7

Panc0403 = assay: as above; type: cell-based; details: combined with MRTX1133
Description: as §1, §2, §3, §4, §5, §6, §7

Panc0504 = assay: as above; type: cell-based; details: combined with MRTX1133
Description: as §1, §2, §3, §4, §5, §6, §7

Panc0813 = assay: as above; type: cell-based; details: combined with MRTX1133
Description: as §1, §2, §3, §4, §5, §6, §7

Panc1005 = assay: as above; type: cell-based; details: combined with MRTX1133
Description: as §1, §2, §3, §4, §5, §6, §7

Panc1 = assay: as above; type: cell-based; details: combined with MRTX1133
Description: as §1, §2, §3, §4, §5, §6, §7

SNU1033 = assay: as above; type: cell-based; details: combined with MRTX1133
Description: as §1, §2, §3, §4, §5, §6, §7

SNU1197 = assay: as above; type: cell-based; details: combined with MRTX1133
Description: as §1, §2, §3, §4, §5, §6, §7

SNU407 = assay: as above; type: cell-based; details: combined with MRTX1133
Description: as §1, §2, §3, §4, §5, §6, §7

SNU410 = assay: as above; type: cell-based; details: combined with MRTX1133
Description: as §1, §2, §3, §4, §5, §6, §7

SNU61 = assay: as above; type: cell-based; details: combined with MRTX1133
Description: as §1, §2, §3, §4, §5, §6, §7

SNUC2B = assay: as above; type: cell-based; details: combined with MRTX1133
Description: as §1, §2, §3, §4, §5, §6, §7

SU8684 = assay: as above; type: cell-based; details: combined with MRTX1133
Description: as §1, §2, §3, §4, §5, §6, §7

SUIT2 = assay: as above; type: cell-based; details: combined with MRTX1133
Description: as §1, §2, §3, §4, §5, §6, §7

SW1990 = assay: as above; type: cell-based; details: combined with MRTX1133
Description: as §1, §2, §3, §4, §5, §6, §7

**Q.** Which results are given for `C#Cc1c(F)ccc2cc(O)cc(-c3ncc4c(N5C[C@H]6CC[C@@H](C5)N6)nc(OC[C@@]56CCCN5C[C@H](F)C6)nc4c3F)c12` [MRTX1133, 4-(4-((1R,5S)-3,8-diazabicyclo[3.2.1]octan-3-yl)-8-fluoro-2-(((2R,7aS)-2-fluorohexahydro-1H-pyrrolizin-7a-yl)methoxy)pyrido[4,3-d]pyrimidin-7-yl)-5-ethynyl-6-fluoronaphthalen-2-ol]?
**A.** Average Tumor Volumes (HPAC cells; Study Day 0): 196.76 mm^3; Average Tumor Volumes (HPAC cells; Study Day 3): 149.646 mm^3; Average Tumor Volumes (HPAC cells; Study Day 7): 107.504 mm^3; Average Tumor Volumes (HPAC cells; Study Day 10): 99.742 mm^3; Average Tumor Volumes (HPAC cells; Study Day 14): 91.818 mm^3; Average Tumor Volumes (HPAC cells; Study Day 17): 93.348 mm^3; Average Tumor Volumes (HPAC cells; Study Day 21): 74.006 mm^3; tumor regression (HPAC cells; 30 mg/kg daily, single agent, Day 21): −62%

**Q.** Which results are given for `CN(C)C/C=C/C(=O)Nc1cc2c(Nc3ccc(F)c(Cl)c3)ncnc2cc1OC1CCOC1` (centres unmarked) [Afatinib, (E)-N-(4-((3-chloro-4-fluorophenyl)amino)-7-((tetrahydrofuran-3-yl)oxy)quinazolin-6-yl)-4-(dimethylamino)but-2-enamide, reference compound]?
**A.** Composite Synergy Score (AGS): 36; Composite Synergy Score (ASPC1): 28; Composite Synergy Score (GP2D): 26; Composite Synergy Score (HCC1588): 10; Composite Synergy Score (HPAC): 33; Composite Synergy Score (HPAFII): 23; Composite Synergy Score (Hec1B): −5; Composite Synergy Score (LS180): 76; Composite Synergy Score (LS513): 69; Composite Synergy Score (Panc0203): 54; Composite Synergy Score (Panc0403): 40; Composite Synergy Score (Panc0504): 24; Composite Synergy Score (Panc0813): 20; Composite Synergy Score (Panc1005): 37; Composite Synergy Score (Panc1): −6; Composite Synergy Score (SNU1033): 30; Composite Synergy Score (SNU1197): 63; Composite Synergy Score (SNU407): 23; Composite Synergy Score (SNU410): −13; Composite Synergy Score (SNU61): 44; Composite Synergy Score (SNUC2B): 25; Composite Synergy Score (SU8684): 42; Composite Synergy Score (SUIT2): 45; Composite Synergy Score (SW1990): 57
